Several values for one entry are separate records, joined by “and”; a condition that tells them apart may be missing. Equal values may be shown once.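 Exposure lasted 48 hours, with cells grown in 96-well plates and compounds tested at five concentrations. GI50: concentration for 50% inhibition of growth.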 Activity calls are given as the source filed them. Rule as the data show it: active = GI50 up to about 1.1 µM and inactive = higher.
Assays:
Assay in all cases: growth of human tumour cells (NCI), 48 h
786-0 = tested on: 786-0
A498 = tested on: A498
A549 = tested on: A549
ACHN = tested on: ACHN
CCRF-CEM = tested on: CCRF-CEM
COLO 205 = tested on: COLO 205
DLD-1 = tested on: DLD-1
DMS-114 = tested on: DMS-114
DMS-273 = tested on: DMS-273
EKVX = tested on: EKVX
HCC 2998 = tested on: HCC 2998
HCT-116 = tested on: HCT-116
HCT-15 = tested on: HCT-15
HL-60 = tested on: HL-60
HOP-18 = tested on: HOP-18
HOP-62 = tested on: HOP-62
HT-29 = tested on: HT-29
IGROV-1 = tested on: IGROV-1
K562 = tested on: K562
KM-20L2 = tested on: KM-20L2
KM12 = tested on: KM12
LOX IMVI = tested on: LOX IMVI
LXFL 529 = tested on: LXFL 529
M14 = tested on: M14
M19-MEL = tested on: M19-MEL
MOLT-4 = tested on: MOLT-4
Malme-3M = tested on: Malme-3M
NCI-H23 = tested on: NCI-H23
NCI-H460 = tested on: NCI-H460
NCI-H522 = tested on: NCI-H522
OVCAR-3 = tested on: OVCAR-3
OVCAR-4 = tested on: OVCAR-4
OVCAR-5 = tested on: OVCAR-5
OVCAR-8 = tested on: OVCAR-8
RXF 393 = tested on: RXF 393
RXF 631 = tested on: RXF 631
SF-268 = tested on: SF-268
SF-539 = tested on: SF-539
SK-MEL-28 = tested on: SK-MEL-28
SK-MEL-2 = tested on: SK-MEL-2
SK-MEL-5 = tested on: SK-MEL-5
SK-OV-3 = tested on: SK-OV-3
SN12C = tested on: SN12C
SNB-19 = tested on: SNB-19
SNB-75 = tested on: SNB-75
SNB-78 = tested on: SNB-78
SR = tested on: SR
SW-620 = tested on: SW-620
TK-10 = tested on: TK-10
U-251 = tested on: U-251
UACC-257 = tested on: UACC-257
UACC-62 = tested on: UACC-62
UO-31 = tested on: UO-31
CAKI-1 = tested on: CAKI-1
NCI-H226 = tested on: NCI-H226
SF-295 = tested on: SF-295
XF498 = tested on: XF498
BT-549 = tested on: BT-549
DU-145 = tested on: DU-145
Hs-578T = tested on: Hs-578T
MCF7 = tested on: MCF7
MDA-MB-231 = tested on: MDA-MB-231
MDA-MB-435 = tested on: MDA-MB-435
MDA-N = tested on: MDA-N
PC-3 = tested on: PC-3
T47D = tested on: T47D

SMILES: O=C(O)Cn1c(=O)[nH]c(=O)c2[nH]cnc21
- GI50 (786-0): > 100 µM (inactive)
- GI50 (A498): > 100 µM (inactive)
- GI50 (A549): > 100 µM (inactive)
- GI50 (ACHN): > 100 µM (inactive)
- GI50 (CCRF-CEM): > 100 µM (inactive)
- GI50 (COLO 205): > 100 µM (inactive)
- GI50 (DLD-1): > 100 µM (inactive)
- GI50 (DMS-114): > 100 µM (inactive)
- GI50 (DMS-273): > 100 µM (inactive)
- GI50 (EKVX): > 100 µM (inactive)
- GI50 (HCC 2998): > 100 µM (inactive)
- GI50 (HCT-116): > 100 µM (inactive)
- GI50 (HCT-15): > 100 µM
- GI50 (HL-60): > 100 µM (inactive)
- GI50 (HOP-18): > 100 µM (inactive)
- GI50 (HOP-62): > 100 µM (inactive)
- GI50 (HT-29): > 100 µM (inactive)
- GI50 (IGROV-1): > 100 µM (inactive)
- GI50 (K562): > 100 µM (inactive)
- GI50 (KM-20L2): > 100 µM (inactive)
- GI50 (KM12): > 100 µM (inactive)
- GI50 (LOX IMVI): > 100 µM (inactive)
- GI50 (LXFL 529): > 100 µM (inactive)
- GI50 (M14): > 100 µM (inactive)
- GI50 (M19-MEL): > 100 µM (inactive)
- GI50 (MOLT-4): > 100 µM (inactive)
- GI50 (Malme-3M): > 100 µM (inactive)
- GI50 (NCI-H23): > 100 µM (inactive)
- GI50 (NCI-H460): > 100 µM (inactive)
- GI50 (NCI-H522): > 100 µM (inactive)
- GI50 (OVCAR-3): > 100 µM (inactive)
- GI50 (OVCAR-4): > 100 µM (inactive)
- GI50 (OVCAR-5): > 100 µM (inactive)
- GI50 (OVCAR-8): > 100 µM (inactive)
- GI50 (RXF 393): > 100 µM (inactive)
- GI50 (RXF 631): > 100 µM (inactive)
- GI50 (SF-268): > 100 µM (inactive)
- GI50 (SF-539): > 100 µM (inactive)
- GI50 (SK-MEL-28): > 100 µM (inactive)
- GI50 (SK-MEL-2): > 100 µM (inactive)
- GI50 (SK-MEL-5): > 100 µM (inactive)
- GI50 (SK-OV-3): > 100 µM (inactive)
- GI50 (SN12C): > 100 µM (inactive)
- GI50 (SNB-19): > 100 µM (inactive)
- GI50 (SNB-75): > 100 µM (inactive)
- GI50 (SNB-78): > 100 µM (inactive)
- GI50 (SR): > 100 µM (inactive)
- GI50 (SW-620): > 100 µM (inactive)
- GI50 (TK-10): > 100 µM (inactive)
- GI50 (U-251): > 100 µM (inactive)
- GI50 (UACC-257): > 100 µM (inactive)
- GI50 (UACC-62): > 100 µM (inactive)
- GI50 (UO-31): > 100 µM (inactive)

SMILES: Fc1cccc2cc3ccc4cccc5ccc(c12)c3c45
- GI50 (786-0): > 100 µM (inactive)
- GI50 (A498): > 100 µM (inactive)
- GI50 (A549): > 100 µM (inactive)
- GI50 (ACHN): > 100 µM (inactive)
- GI50 (CAKI-1): > 100 µM (inactive)
- GI50 (CCRF-CEM): > 100 µM (inactive)
- GI50 (COLO 205): > 100 µM (inactive)
- GI50 (DLD-1): 0.509 µM (active)
- GI50 (DMS-114): > 100 µM (inactive)
- GI50 (DMS-273): 0.296 µM (active)
- GI50 (EKVX): 2.66 µM (inactive)
- GI50 (HCC 2998): 7.52 µM (inactive)
- GI50 (HCT-116): > 100 µM (inactive)
- GI50 (HL-60): > 100 µM (inactive)
- GI50 (HOP-18): 1.72 µM (inactive)
- GI50 (HOP-62): > 100 µM (inactive)
- GI50 (HT-29): > 100 µM (inactive)
- GI50 (IGROV-1): > 100 µM (inactive)
- GI50 (K562): > 100 µM (inactive)
- GI50 (KM-20L2): > 100 µM (inactive)
- GI50 (KM12): > 100 µM (inactive)
- GI50 (LOX IMVI): > 100 µM (inactive)
- GI50 (LXFL 529): > 100 µM (inactive)
- GI50 (M14): > 100 µM (inactive)
- GI50 (M19-MEL): > 100 µM (inactive)
- GI50 (MOLT-4): > 100 µM (inactive)
- GI50 (Malme-3M): > 100 µM (inactive)
- GI50 (NCI-H226): 7.66 µM (inactive)
- GI50 (NCI-H23): 1.63 µM (inactive)
- GI50 (NCI-H522): > 100 µM (inactive)
- GI50 (OVCAR-3): > 100 µM (inactive)
- GI50 (OVCAR-4): > 100 µM (inactive)
- GI50 (OVCAR-5): 7.4 µM (inactive)
- GI50 (OVCAR-8): > 100 µM (inactive)
- GI50 (RXF 393): > 100 µM (inactive)
- GI50 (RXF 631): > 100 µM (inactive)
- GI50 (SF-268): > 100 µM (inactive)
- GI50 (SF-295): > 100 µM (inactive)
- GI50 (SF-539): > 100 µM (inactive)
- GI50 (SK-MEL-28): > 100 µM (inactive)
- GI50 (SK-MEL-5): > 100 µM (inactive)
- GI50 (SK-OV-3): 0.771 µM (active)
- GI50 (SN12C): > 100 µM (inactive)
- GI50 (SNB-19): > 100 µM (inactive)
- GI50 (SNB-75): > 100 µM (inactive)
- GI50 (SR): 0.0146 µM (active)
- GI50 (SW-620): > 100 µM (inactive)
- GI50 (TK-10): 0.721 µM (active)
- GI50 (U-251): > 100 µM (inactive)
- GI50 (UACC-257): > 100 µM (inactive)
- GI50 (UACC-62): > 100 µM (inactive)
- GI50 (UO-31): > 100 µM (inactive)
- GI50 (XF498): > 100 µM (inactive)

SMILES: C/C=C(\CCC1NCCc2c1[nH]c1ccccc21)[Si](C)(C)C (centres undefined)
- GI50 (A498): 2.67 µM (inactive) and 6.5 µM (inactive)
- GI50 (A549): 10.1 µM (inactive) and 6.59 µM (inactive)
- GI50 (BT-549): 10.8 µM (inactive)
- GI50 (COLO 205): 14.3 µM (inactive) and 1.8 µM (inactive)
- GI50 (DLD-1): 3.49 µM (inactive) and 6.24 µM (inactive)
- GI50 (DU-145): 12.6 µM (inactive)
- GI50 (EKVX): 14.7 µM (inactive) and 8.41 µM (inactive)
- GI50 (HCT-15): 18.7 µM and 2.25 µM
- GI50 (HOP-18): 6.79 µM (inactive) and 20.1 µM (inactive)
- GI50 (HOP-62): 11.9 µM (inactive) and 14.5 µM (inactive)
- GI50 (Hs-578T): 2.05 µM (inactive)
- GI50 (K562): 3.57 µM (inactive) and 6.67 µM (inactive)
- GI50 (LOX IMVI): 2.28 µM (inactive) and 20.3 µM (inactive)
- GI50 (LXFL 529): 1.78 µM (inactive) and 5.01 µM (inactive)
- GI50 (MCF7): 2.02 µM (inactive)
- GI50 (MDA-MB-231): 2.14 µM (inactive)
- GI50 (MDA-MB-435): 3.37 µM (inactive)
- GI50 (MDA-N): 2.09 µM (inactive)
- GI50 (MOLT-4): 2.74 µM (inactive) and 4.35 µM (inactive)
- GI50 (Malme-3M): 1.77 µM (inactive) and 1.21 µM (inactive)
- GI50 (NCI-H226): 10.9 µM (inactive) and 7.76 µM (inactive)
- GI50 (OVCAR-4): 3.03 µM (inactive) and 5.81 µM (inactive)
- GI50 (OVCAR-8): 4.16 µM (inactive) and 7.82 µM (inactive)
- GI50 (PC-3): 5.01 µM (inactive)
- GI50 (RXF 631): 5.05 µM (inactive) and 7.28 µM (inactive)
- GI50 (SF-268): 11.2 µM (inactive) and 5.96 µM (inactive)
- GI50 (SK-OV-3): 13.4 µM (inactive) and 10.1 µM (inactive)
- GI50 (SN12C): 5.89 µM (inactive) and 3.32 µM (inactive)
- GI50 (SNB-75): 5.97 µM (inactive) and 6.5 µM (inactive)
- GI50 (SNB-78): 4.9 µM (inactive) and 9.31 µM (inactive)
- GI50 (T47D): 2.22 µM (inactive)
- GI50 (UACC-62): 5.86 µM (inactive) and 5.27 µM (inactive)
- GI50 (XF498): 1.41 µM (inactive) and 1.8 µM (inactive)
